Reference: the NIST ThermoML archive (doi:10.1021/je060406c)
Where “and” joins values, the source holds several entries; their conditions need not be identical. Identical values can stand only once. ± gives the expanded uncertainty stated by the source.

Conditions: Liquid, Transpiration method

O=Cc1ccco1 [2-furaldehyde]
Conditions | vapor or sublimation pressure [kPa]
276.7 K | 0.0525 ± 0.003
281.5 K | 0.0746 ± 0.0041
285.4 K | 0.1011 ± 0.0056
288.4 K | 0.1293 ± 0.0072
290.6 K | 0.1516 ± 0.0084
293.2 K | 0.182 ± 0.01
295.5 K | 0.2088 ± 0.012
298.2 K | 0.2589 ± 0.014
300.5 K | 0.3002 ± 0.017
303.1 K | 0.3652 ± 0.02
308.2 K | 0.4911 ± 0.027
312.2 K | 0.6213 ± 0.034
315.1 K | 0.7411 ± 0.041
317.9 K | 0.9108 ± 0.05
320.1 K | 1.04 ± 0.057
323.4 K | 1.256 ± 0.068

OCCc1ccccc1 [2-phenylethanol]
Conditions | vapor or sublimation pressure
287.8 K | 0.00251 ± 0.00014 kPa
289.7 K | 0.00285 ± 0.00016 kPa
292.7 K | 0.00399 ± 0.00023 kPa
295.1 K | 0.00482 ± 0.00027 kPa
297.5 K | 0.00626 ± 0.00036 kPa
302.5 K | 0.00976 ± 0.00055 kPa
308.2 K | 0.0153 ± 0.00086 kPa
312.5 K | 0.02276 ± 0.0013 kPa
316.6 K | 0.03091 ± 0.0017 kPa
317.6 K | 0.03285 ± 0.0018 kPa
322.7 K | 0.05022 ± 0.0028 kPa and 0.05028 ± 0.0028 kPa
322.8 K | 0.05055 ± 0.0028 kPa
327.8 K | 0.06913 ± 0.0038 kPa
332.8 K | 0.09839 ± 0.0054 kPa
337.9 K | 0.1395 ± 0.0078 kPa
342.9 K | 0.2097 ± 0.012 kPa
348.1 K | 0.2794 ± 0.015 kPa
353.2 K | 0.3777 ± 0.021 kPa
358.3 K | 0.5243 ± 0.029 kPa
363.3 K | 0.6922 ± 0.038 kPa

O=Cc1ccccc1 [benzaldehyde]
Conditions | vapor or sublimation pressure [kPa]
278.4 K | 0.04083 ± 0.0023
282.3 K | 0.05524 ± 0.0031
286.3 K | 0.07697 ± 0.0042
290.3 K | 0.09697 ± 0.0054
294.3 K | 0.1372 ± 0.0076
298.4 K | 0.1775 ± 0.0098
303.2 K | 0.246 ± 0.013
308.2 K | 0.3195 ± 0.017
313.2 K | 0.4306 ± 0.023

O=CCc1ccccc1 [α-tolualdehyde]
Conditions | vapor or sublimation pressure [kPa]
293.2 K | 0.01683 ± 0.00095
298.1 K | 0.02456 ± 0.0014
303.1 K | 0.03724 ± 0.0021
308.2 K | 0.05436 ± 0.003
313.7 K | 0.0801 ± 0.0044
317.9 K | 0.111 ± 0.0061
323 K | 0.15 ± 0.0083
328.1 K | 0.2162 ± 0.012
332.1 K | 0.2883 ± 0.016
338 K | 0.4029 ± 0.022
343 K | 0.5498 ± 0.03
